In the NIST ThermoML archive (doi:10.1016/j.fluid.2013.01.003):
± gives the expanded uncertainty stated by the source.

Settings: 101.33 kPa, Liquid; for electrical conductivity: Alternating current cell with electrodes; for viscosity: Falling or rolling sphere viscometry; for mass density: Vibrating tube method

O=S(=O)([N-]S(=O)(=O)C(F)(F)F)C(F)(F)F.OCC[n+]1ccccc1
Settings	electrical conductivity [S/m]	mass density [kg/m3]	viscosity [mPa·s]
273.15 K	0.0435 ± 0.04	1614.7 ± 0.8	645 ± 56
278.15 K	0.0655 ± 0.04	1609.2 ± 0.8	421.9 ± 30
283.15 K	0.0945 ± 0.04	1604 ± 0.8	285.8 ± 17
288.15 K	0.132 ± 0.04	1599.44 ± 0.78	200.9 ± 9.5
293.15 K	0.178 ± 0.04	1594.47 ± 0.77	145.7 ± 5.3
298.15 K	0.233 ± 0.04	1589.51 ± 0.77	108.7 ± 2.9
303.15 K	0.299 ± 0.04	1584.59 ± 0.76	83.19 ± 1.5
313.15 K	0.461 ± 0.04	1574.82 ± 0.75	52.03 ± 0.28
323.15 K	0.668 ± 0.04	1565.16 ± 0.74	34.91 ± 0.32
333.15 K	0.912 ± 0.04	1555.59 ± 0.73	24.77 ± 0.23
343.15 K	1.2 ± 0.04	1546.08 ± 0.72	18.37 ± 0.17
353.15 K	1.52 ± 0.04	1536.66 ± 0.71	14.12 ± 0.13
363.15 K	–	1527.29 ± 0.7	11.18 ± 0.11
